Measurements published in patent publication US7888063B2, “Unnatural reactive amino acid genetic code additions” (The Scripps Research Institute, priority 2003, dated 2011).

B1: EcTyrRS: Escherichia coli tyrosyl-tRNA synthetase, expressed with tRNACUA in yeast (protein, UniProt P0AGJ9 2-424, looked up)
Tyrosine--tRNA ligase: ASSNLIKQLQERGLVAQVTDEEALAERLAQGPIALYCGFDPTADSLHLGHLVPLLCLKRFQQAGHKPVALVGGATGLIGDPSFKAAERKLNTEETVQEWVDKIRKQVAPFLDFDCGENSAIAANNYDWFGNMNVLTFLRDIGKHFSVNQMINKEAVKQRLNREDQGISFTEFSYNLLQGYDFACLNKQYGVVLQIGGSDQWGNITSGIDLTRRLHQNQVFGLTVPLITKADGTKFGKTEGGAVWLDPKKTSPYKFYQFWINTADADVYRFLKFFTFMSIEEINALEEEDKNSGKAPRAQYVLAEQVTRLVHGEEGLQAAKRITECLFSGSLSALSEADFEQLAQDGVPMVEMEKGADLMQALVDSELQPSRGQARKTIASNAITINGEKQSDPEYFFKEEDRLFGRFTLLRRGKKNYCLICWK

Assays:
position 33 of hSOD = assay: LC-MS/MS of tryptic peptide VY*GSIK of mutant hSOD: identity of the amino acid incorporated; parameters: species or system Saccharomyces cerevisiae; conditions: from the signal-to-noise ratio of the peptide spectra; hSOD position 33
Protocol: The identity of the amino acid incorporated was determined by subjecting a tryptic digest of the mutant protein to liquid chromatography and tandem mass spectrometry. For example, for mass spectrometry protein bands were visualized by colloidal Coomassie stain. Gel bands corresponding to wild-type and mutant SOD were excised from polyacrylamide gels, sliced into 1.5-mm cubes, reduced and alkylated, then subjected to trypsin hydrolysis essentially as described. See, e.g., A. Shevchenko, et al., (1996), Analytical Chemistry 68, 850-858. Tryptic peptides containing the unnatural amino acid were analyzed by nanoflow reversed-phase HPLC/μESI/MS with an LCQ ion trap mass spectrometer. Liquid chromatography tandem mass spectrometry (LC-MS/MS) analysis was performed on a Finnigan LCQ Deca ion trap mass spectrometer (Thermo Finnigan) fitted with a Nanospray HPLC (Agilent 1100 series). See, e.g., FIG. 10, Panels A-H. […]
For example, the wild-type and mutant hSOD were purified using nickel affinity column and protein bands were visualized by colloidal Coomassie stain. […] Tryptic peptides containing the unnatural amino acid were analyzed by nanoflow reversed-phase HPLC/μESI/MS with an LCQ ion trap mass spectrometer. […]

[1] = tested on: GAL4 responsive HIS3, URA3 and lacZ reporters in MaV203; assay: Growth of selection strain MaV203:pGADGAL4(2TAG) harboring synthetase plasmids on selective media (-ura, -his + 3-AT, 5-FOA, X-GAL); type: cell-based, Saccharomyces cerevisiae; conditions: MaV203 containing pGADGAL4(T44TAG, R110TAG)
Protocol: S. cerevisiae strain MaV203, (Invitrogen) is MATα; leu2-3,112; trp1 109;his3 Δ200;ade2-101;cyh2^R;cyh1^R;GAL4 Δ; gal80 Δ; GAL1::lacZ; HIS3UASGAL1::HIS3@LYS2; SPAL10UASGAL1::URA3. Yeast media were purchased from Clontech, 5-FOA and X-GAL were from Invitrogen and 3-AT was from BIO 101. YPER (Yeast Protein Extraction Reagent) and ONPG were purchased from Pierce Chemicals. Plasmid transformations were performed by the PEG/Lithium actetate method (see, e.g., D. Burke, et al., (2000) Methods in Yeast Genetics. Cold Spring Harbor Laboratory Press, Cold Spring Harbor, N.Y.) and transformants selected on the appropriate synthetic complete dropout media. To test the phenotypes conferred by various plasmid combinations on MaV203 yeast colonies from synthetic complete dropout plates of each transformation were resuspended in 15 μL of sterile water and streaked on the selective media of interest. […] The OD660 of 100 μL of cells, and several dilutions of cells were recorded in parallel in a 96 well microtiter plate. […] Upon color development, cells were pelleted by centrifugation, the supernatant transferred to a clean 96 well microtiter plate (Nunclon, cat.# 167008), and the A420 recorded. […] ONPG hydrolysis was calculated using the equation: beta-galactosidase units=[…]. […] Spectrophotometric readings were performed on a SPECTRAmax190 plate reader. […]

Molecule | incorporation purity (position 33 of hSOD) | growth phenotype on 3-AT plates [1]
CC(=O)c1ccc(C[C@H](N)C(=O)O)cc1 [p-acetyl-L-phenylalanine] | ≥ 99.8% | 
B1 |  | grew robustly on plates with 3-AT concentrations up to 75 mM
